Converted amounts (≈) assume the structure as drawn.
Columns and labels:
S. haemolitycus = experiment: Susceptibility of isolate panel (MIC50, MIC90, range); assay type: cell-based, S. haemolyticus
Description: Reference strains for this study (S. aureus ATCC 29213, ATCC 29740 [bovine mastitis strain Newbould], S. epidermidis ATCC 12228, E. coli ATCC 35695, E. faecalis ATCC 29212) were obtained from the American Type Culture Collection (ATCC, Rockville, MD). S. aureus strains CMRSA-10 and CMRSA-2 were obtained from the Laboratoire de santé publique du Québec (LSPQ, Sainte-Anne-de-Bellevue, QC, Canada) and are Canadian CA-MRSA USA-300 and HA-MRSA USA-100 clones, respectively. The strain E. coli imp4213 (lptD), used as a control in MIC assays, is a derivative of E. coli ATCC 35695 (E. coli MC4100) with an increased membrane permeability. […] Other MRSA strains used in this study are clinical isolates of human origin obtained from the microbiology laboratory of the Centre Hospitalier Universitaire de Sherbrooke (CHUS, Sherbrooke, QC, Canada). Bovine mastitis strains (S. aureus, S. chromogenes, S. haemolyticus, S. hominis, S. simulans) were obtained from the Canadian Bovine Mastitis and Milk Quality Research Network (CBRQMN, St-Hyacinthe, QC, Canada). Among these strains, S. aureus 2117 is a high producer of biofilm and was used in the biofilm-eradication assay. S. epidermidis isolates were provided by Centre de Recherche en Infectiologie (CRI) de Québec (Québec, QC, Canada).
The antibacterial activity of the most promising compound, PC206, was also evaluated against larger groups of clinical isolates of human and animal origin. The MIC50 and MIC90 values represented the concentrations of drug required to inhibit the growth of 50% and 90% of the bacterial strains tested, respectively.

[1] = test system: S. aureus bovine strain 2117 embedded in preformed biofilm; experiment: Biofilm-eradication test (MBEC assay); assay type: cell-based, Staphylococcus aureus; details: 24 h exposure
Description: The viability of bacteria in preformed biofilms treated with PC206 was evaluated using the MBEC assay™ system (formerly the Calgary Biofilm Device). The device consists of a plastic lid with 96 pegs and a 96-well plate. […] Plates were incubated at 35 °C for 24 h with agitation (120 rpm). […] The pegs were washed three times with PBS and the biofilm was sonicated for 10 min, and then transferred into a new 96-well base plate. The 96-well plate was centrifuged for 5 min at 180 g to recover the detached bacteria.

[2] = test system: guanine riboswitch-lacZ fusion construct (xpt-lacZ); experiment: Riboswitch regulation assay (lacZ-gene reporter); assay type: cell-based, B. subtilis; details: 64 µg/mL
Description: The novel pyrimidine compounds, especially PC206, display specificity and potency against some staphylococci but not the other bacterial genus (Table 1 and Table 2). Because they are structurally derived from PC1 and PC2, these novel antibiotic candidates are expected to have the same mode of action. […] To verify this hypothesis, a strain of B. subtilis with a guanine riboswitch-lacZ fusion construct (named xpt-lacZ) integrated in its chromosome was exposed to these new antimicrobials. […] Therefore, it is an adequate reporter species. The metabolization of substrate ONPG into colored ONP was normalized by the bacterial suspension absorbance at 600 nm (Miller units) and relativized to the untreated condition.
β-galactosidase gene expression in the presence of the new pyrimidine analogs was studied, using an xpt-lacZ transcriptional fusion construct integrated in the genome of B. subtilis as previously described. Briefly, cultures were grown for 5 h at 35 °C in CAMHB, from an initial optical density of 0.05 at 600 nm (OD600), and then diluted 1:20 and in the presence of different concentrations of the compounds tested. Cultures were centrifuged for 10 min at 13,100 rpm, the supernatant was discarded, and pellets were suspended in a Z-buffer (NaH2PO4 40 mM, Na2HPO4 60 mM, MgSO4 1 mM, KCl 10 mM). Cultures OD600 were measured, and bacteria were then lysed with lysozyme (1 mg/mL) and β-mercaptoethanol 50 mM for 30 min. Lysates were centrifuged for 10 min at 13,100 rpm, and supernatants were incubated for 5 min at 30 °C with the substrate orthonitrophenyl-β-galactoside (ONPG; Sigma Aldrich). Reactions were stopped with Na2CO3 1M, supernatants OD420 were measured, and Miller units were calculated. A decrease in β-galactosidase activity indicated binding of the test compound to the riboswitch. Guanine and oxacillin were used as […] controls, respectively. The formula to measure Miller units is as follows: Millerunits=1000×OD420/t·v·OD600
Here, t represents the time of incubation with ONPG, and v represents the volume of the reaction.

LDH release assay = assay type: cell-based; details: bovine, MAC-T cells
[3] = test system: HepG2 and MAC-T cells versus S. aureus Newbould; experiment: Selectivity ratios over both assays and both cell lines; assay type: cell-based; details: over MTT and LDH assays
Description: All CC50 values are reported in Table 3, and plots are provided in the Supplementary Information (Supplementary Figure S2). PC371 had no effect on cell viability even at the highest concentrations tested (CC50 > 600 μM) in both the MTT and the LDH assay and for the two cell lines tested. For the three other compounds, in both cell lines and both assays, a correlation was observed between the effect on cell viability and the length of their aliphatic chain. CC50 of PC372 (5 carbons) was higher than that of PC206 (6 carbons), and both were higher than that of PC383 (10 carbons). Indeed, for the MAC-T cells in the MTT assay, the values were >600 μM (PC372), 317 μM (PC206), and 13.5 μM (PC383). Again, for the MAC-T cell line, the values for the LDH assay were >600 μM (PC372 and PC206) and 23.6 μM (PC383). Similar results were obtained with the HepG2 cells. […] Overall, the MAC-T cells tolerated better exposure to the compounds than the HepG2 cells. To assess the selectivity of the PC2 analogs towards S. aureus, selectivity ratios were calculated. These ratios were obtained by dividing the cytotoxicity CC50 values of an analog by its MIC against S. aureus Newbould. It was not possible to calculate the selectivity ratio for PC371 as its CC50 and MIC values exceeded the maximum values tested.

Chemical stability = assay type: physicochemical
[4] = test system: S. aureus Newbould (ATCC 29740); experiment: Murine mastitis model; details: two intramammary doses of 500 µg
[5] = test system: Staphylococcus epidermidis ATCC 12228; experiment: Broth microdilution MIC; details: ATCC12228, read-out: Broth Microdilution MIC
[6] = test system: Enterococcus faecalis ATCC 29212; experiment: Broth microdilution MIC; details: ATCC29212, read-out: Broth Microdilution MIC

CCCCCCNc1cc(N)nc(N)n1 [PC206]
MIC Range (S. haemolitycus; S. haemolitycus, 10 isolates): 4 to 128 µg/mL
MIC90 (S. haemolitycus; Staphylococcus haemolyticus): 128 µg/mL (≈ 612 µM)
MIC50 (S. haemolitycus; Staphylococcus haemolyticus, S. haemolitycus, 10 isolates, read-out: MIC50): 64 µg/mL (≈ 306 µM)
Reduction in CFU/peg compared to the untreated biofilm ([1]; 32 µg/mL): 1.28 log10
Reduction in CFU/peg compared to the untreated biofilm ([1]; 128 µg/mL): 2.40 log10
Reduction in CFU/peg compared to the untreated biofilm ([1]; 512 µg/mL): 5.43 log10
Miller units remaining, relative to the untreated condition [2]: 35%
CC50 at 24 h (LDH release assay; 24 h): > 600 µM
CC50 at 24 h (LDH release assay; converted from μM): > 125 µg/mL
Selectivity ratio (CC50/MIC against S. aureus Newbould), overall [3]: above 3.9
Stability in solution (Chemical stability): remains stable in solution
Tolerability in mice and mammary gland tissues [4]: No inflammation, damage, nor adverse effects were observed
Difference in median bacterial counts versus untreated mice ([4]; 1 and 4 h after infection, glands harvested 14 h post-infection): 1.24 log10 CFU/g of gland
MIC [5]: 4 µg/mL (≈ 19.1 µM)
MIC [6]: 128 µg/mL (≈ 612 µM)
